In article PMC10827914 (Cellular and Molecular Life Sciences: CMLS, 2024):

Experiments:
[1] = test system: CD13 expressed in HL-60 cells; assay: Inhibition of cell-associated CD13 enzymatic activity, HL-60 cells; assay type: cell-based, human; details: 3 × 10^5 cells/well, L-alanine p-nitroanilide, 30 min, 37 °C, absorbance 405 nm
Protocol: Fig. 5 Quantification of CD13 expressed by HL-60 and HUVEC by western blotting and FACS analyses, and determination of their enzymatic activity. A Western blotting (WB) analysis of CD13 expression in HL-60 cells and HUVEC. For both cell lines, 2 µg of cell lysates were loaded in each well (n = 4–5 replicates, as indicated). After blotting, the membrane was cut and analyzed for CD13 and actin expression as described in Material and methods. The results of one representative experiment, out of three independent experiments performed, are shown (bars, ratio of CD13/actin band intensity, mean ± SEM). Recombinant human CD13 (rCD13) (20 ng) was loaded as positive control. MW, molecular weight markers. B FACS analysis of CD13 expression in HUVEC and HL-60 cells. The cells were incubated with mAb WM15 (10 μg/mL) and stained with a FITC-labeled goat anti-mouse IgG (H + L) secondary antibody. Data were expressed as fluorescence intensity and normalized to the number of cells. The cumulative results of three independent experiments are shown (each performed in duplicate; mean ± SEM). C Enzyme activity assay of CD13 expressed in HUVEC and HL-60 cells. […] Absorbance at 405 nm was measured using a plate reader. The enzyme units in each sample were calculated using rCD13 as a standard and were normalized to the number of cells. […] The absorbance was measured at 405 nm using a plate reader. […]

[2] = test system: soluble CD13 from human serum (sCD13); assay: Competitive ELISA of sCD13 binding to mAb WM15; details: plates coated with mAb WM15 5 μg/mL, human serum diluted 1:2, 2 h, room temperature
Protocol: Fig. 4 The active site of membrane CD13 expressed by HUVEC, but not that of soluble CD13 or membrane CD13 expressed by HL60 cells, is accessible to G4-TNF. A Competitive effects of G4 and G4-TNF on the binding of mAb WM15 (anti-CD13) to sCD13 or rCD13 showing the lack of binding of G4-TNF to natural and recombinant soluble CD13 (sCD13 and rCD13). G4, scrambled G4 (GCRSNCYRVG), and TNF were used as positive (G4) and negative (scrambled G4, TNF) controls. The sCD13 competition assay was performed as follows: microplates were coated with mAb WM15 (5 μg/mL) in DPBS and incubated overnight at 4 °C. […] The mixtures were incubated for 2 h at room temperature and washed with DPBS. To detect bound sCD13, we added an anti-CD13 rabbit polyclonal antibody (1:1000, 1 h at room temperature), washed with DPBS, and added peroxidase-labeled goat anti-rabbit secondary antibody (1:2000, 1 h). Bound peroxidase was detected using o-phenylendiamine chromogenic substrate. The absorbance of o-phenylenediamine was measured at 490 nm using an ELISA plate reader (Bio-Rad). Cumulative results of two independent experiments, each performed in duplicate, are shown (mean ± SEM). The rCD13 competition assay was performed as described in Supplementary Fig. S2 (one experiment in duplicate, mean ± SEM). […]

Substance: VGCARRYCS-TNF [G4-TNF, recombinant murine TNF fused to the C-terminus of G4]
- Inhibition of CD13 enzymatic activity associated with HL-60 cells (in words) [1]: did not inhibit
- Competition of sCD13 binding to mAb WM15 (in words) [2]: no competition was observed
